Results on 16 molecules are retold here after patent US20230203059A1, “MACROCYCLIC JAK INHIBITOR AND USES THEREOF” (Biopolar Hongye (Guangdong) Pharmaceutical Co. Ltd., priority 2020, published 2023).

Format in all cases: biochemical
One test concerns the target T1, JAK3 (Homo sapiens, UniProt P52333).
T1 sequence (P52333 1-1124): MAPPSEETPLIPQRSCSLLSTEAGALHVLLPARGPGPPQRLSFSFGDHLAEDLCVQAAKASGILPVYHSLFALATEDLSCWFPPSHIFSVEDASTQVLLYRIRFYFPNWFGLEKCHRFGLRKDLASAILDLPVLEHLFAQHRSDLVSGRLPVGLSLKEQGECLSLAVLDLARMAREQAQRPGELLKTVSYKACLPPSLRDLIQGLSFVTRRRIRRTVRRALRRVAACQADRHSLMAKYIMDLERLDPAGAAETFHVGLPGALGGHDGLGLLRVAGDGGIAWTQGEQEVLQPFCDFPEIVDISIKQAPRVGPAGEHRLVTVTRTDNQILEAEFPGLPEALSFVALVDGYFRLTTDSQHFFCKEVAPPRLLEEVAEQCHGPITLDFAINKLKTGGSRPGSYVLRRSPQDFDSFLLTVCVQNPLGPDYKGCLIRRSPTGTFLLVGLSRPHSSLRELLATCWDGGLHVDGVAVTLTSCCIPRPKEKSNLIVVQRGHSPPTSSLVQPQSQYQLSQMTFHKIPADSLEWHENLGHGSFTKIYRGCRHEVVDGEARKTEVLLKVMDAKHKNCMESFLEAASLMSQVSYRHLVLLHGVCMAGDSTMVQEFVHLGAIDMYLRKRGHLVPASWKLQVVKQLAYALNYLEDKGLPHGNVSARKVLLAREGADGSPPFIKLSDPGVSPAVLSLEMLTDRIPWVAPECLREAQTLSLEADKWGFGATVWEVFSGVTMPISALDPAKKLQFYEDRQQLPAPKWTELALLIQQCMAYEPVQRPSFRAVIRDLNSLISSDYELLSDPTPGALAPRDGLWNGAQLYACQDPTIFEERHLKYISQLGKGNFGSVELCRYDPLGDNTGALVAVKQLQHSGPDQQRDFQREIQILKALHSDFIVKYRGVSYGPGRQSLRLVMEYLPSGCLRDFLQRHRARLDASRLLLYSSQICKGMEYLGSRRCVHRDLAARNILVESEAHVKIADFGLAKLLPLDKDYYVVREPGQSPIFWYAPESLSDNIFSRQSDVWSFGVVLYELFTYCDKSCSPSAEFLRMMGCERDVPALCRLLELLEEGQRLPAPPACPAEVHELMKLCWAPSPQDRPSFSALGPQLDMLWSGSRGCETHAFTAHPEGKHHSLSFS
The experiment in a line: JAK kinase activity, homogeneous time-resolved fluorescence (JAK3 reaction system). Particulars: ATP 2 μM, JAK3 protein 0.04 ng/μL; read-out: JAK 3 activity.

In another test the target is TYK2 (Homo sapiens, UniProt P29597). The experiment in a line: JAK kinase activity, homogeneous time-resolved fluorescence (TYK2 reaction system). Particulars: ATP 2 μM, TYK2 protein 0.2 ng/μL; read-out: TYK 2 activity. The procedure, abridged:
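Activity read as the 665 nm/615 nm ratio after adding EDTA-containing detection mix with anti-phospho-substrate antibody and XL-615. Beforehand, 0.2 ng/μL TYK2, 2 μM ATP, substrate and compound reacted 1 h in pH 7.0 Hepes buffer with MgCl2 and DTT. IC50 fitted with Hill-slope equation.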

For another test, the target named is JAK1 (Homo sapiens, UniProt P23458). Kind of test: JAK kinase activity, homogeneous time-resolved fluorescence (JAK1 reaction system). To be noted: ATP 2 μM, JAK1 protein 0.2 ng/μL; read-out: JAK 1 activity. The gist of the method:
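Kinase activity read as the 665 nm/615 nm time-resolved fluorescence ratio (320 nm excitation) after EDTA-containing antibody and XL-615 addition. Reaction ran 1 h at pH 7.0 (Hepes, MgCl2, DTT) with 0.2 ng/μL JAK1 and ATP at 2 μM. IC50 derived by Hill-slope fit.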

The target of the next test is JAK2 (Homo sapiens, UniProt O60674). Kind of test: JAK kinase activity, homogeneous time-resolved fluorescence (JAK2 reaction system). Particulars: ATP 2 μM, JAK2 protein 0.01 ng/μL. The procedure, abridged: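 IC50 derived by Hill-equation fit of the 665/615 nm time-resolved fluorescence ratio after EDTA-containing detection mix with anti-phosphosubstrate antibody. Preceding 1 h reaction contained 2 μM ATP, 0.01 ng/μL JAK2, substrate, 50 mM Hepes pH 7.0, 5 mM MgCl2, 1 mM DTT.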
Sequence of JAK2 (O60674 whole entry): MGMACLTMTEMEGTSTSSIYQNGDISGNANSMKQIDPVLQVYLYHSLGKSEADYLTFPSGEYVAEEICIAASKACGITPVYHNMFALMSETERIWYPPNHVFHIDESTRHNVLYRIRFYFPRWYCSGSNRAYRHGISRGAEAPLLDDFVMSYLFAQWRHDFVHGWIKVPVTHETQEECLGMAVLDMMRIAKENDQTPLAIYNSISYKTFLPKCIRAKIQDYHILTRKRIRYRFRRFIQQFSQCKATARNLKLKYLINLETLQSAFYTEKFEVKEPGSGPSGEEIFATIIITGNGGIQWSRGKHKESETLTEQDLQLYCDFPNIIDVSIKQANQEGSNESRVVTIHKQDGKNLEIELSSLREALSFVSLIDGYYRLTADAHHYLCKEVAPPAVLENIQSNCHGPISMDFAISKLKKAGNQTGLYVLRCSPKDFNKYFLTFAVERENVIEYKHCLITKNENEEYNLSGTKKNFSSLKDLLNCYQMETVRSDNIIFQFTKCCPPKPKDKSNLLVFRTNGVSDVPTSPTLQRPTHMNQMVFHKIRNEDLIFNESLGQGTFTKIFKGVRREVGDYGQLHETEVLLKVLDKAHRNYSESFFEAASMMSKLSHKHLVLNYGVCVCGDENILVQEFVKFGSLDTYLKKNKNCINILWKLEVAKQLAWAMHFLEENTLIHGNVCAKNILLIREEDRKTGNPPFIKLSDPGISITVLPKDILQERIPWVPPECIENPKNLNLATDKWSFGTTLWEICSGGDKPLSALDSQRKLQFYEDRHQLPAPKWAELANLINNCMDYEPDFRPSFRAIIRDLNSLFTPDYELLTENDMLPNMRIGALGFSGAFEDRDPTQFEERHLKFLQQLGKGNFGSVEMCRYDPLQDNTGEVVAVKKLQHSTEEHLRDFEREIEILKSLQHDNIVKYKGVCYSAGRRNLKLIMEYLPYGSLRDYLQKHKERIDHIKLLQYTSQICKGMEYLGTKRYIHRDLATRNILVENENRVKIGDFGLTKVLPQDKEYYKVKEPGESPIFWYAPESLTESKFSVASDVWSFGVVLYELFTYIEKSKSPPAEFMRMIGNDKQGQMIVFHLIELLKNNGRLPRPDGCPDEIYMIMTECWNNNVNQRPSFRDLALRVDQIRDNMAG

Sequence of JAK1 (P23458 whole entry): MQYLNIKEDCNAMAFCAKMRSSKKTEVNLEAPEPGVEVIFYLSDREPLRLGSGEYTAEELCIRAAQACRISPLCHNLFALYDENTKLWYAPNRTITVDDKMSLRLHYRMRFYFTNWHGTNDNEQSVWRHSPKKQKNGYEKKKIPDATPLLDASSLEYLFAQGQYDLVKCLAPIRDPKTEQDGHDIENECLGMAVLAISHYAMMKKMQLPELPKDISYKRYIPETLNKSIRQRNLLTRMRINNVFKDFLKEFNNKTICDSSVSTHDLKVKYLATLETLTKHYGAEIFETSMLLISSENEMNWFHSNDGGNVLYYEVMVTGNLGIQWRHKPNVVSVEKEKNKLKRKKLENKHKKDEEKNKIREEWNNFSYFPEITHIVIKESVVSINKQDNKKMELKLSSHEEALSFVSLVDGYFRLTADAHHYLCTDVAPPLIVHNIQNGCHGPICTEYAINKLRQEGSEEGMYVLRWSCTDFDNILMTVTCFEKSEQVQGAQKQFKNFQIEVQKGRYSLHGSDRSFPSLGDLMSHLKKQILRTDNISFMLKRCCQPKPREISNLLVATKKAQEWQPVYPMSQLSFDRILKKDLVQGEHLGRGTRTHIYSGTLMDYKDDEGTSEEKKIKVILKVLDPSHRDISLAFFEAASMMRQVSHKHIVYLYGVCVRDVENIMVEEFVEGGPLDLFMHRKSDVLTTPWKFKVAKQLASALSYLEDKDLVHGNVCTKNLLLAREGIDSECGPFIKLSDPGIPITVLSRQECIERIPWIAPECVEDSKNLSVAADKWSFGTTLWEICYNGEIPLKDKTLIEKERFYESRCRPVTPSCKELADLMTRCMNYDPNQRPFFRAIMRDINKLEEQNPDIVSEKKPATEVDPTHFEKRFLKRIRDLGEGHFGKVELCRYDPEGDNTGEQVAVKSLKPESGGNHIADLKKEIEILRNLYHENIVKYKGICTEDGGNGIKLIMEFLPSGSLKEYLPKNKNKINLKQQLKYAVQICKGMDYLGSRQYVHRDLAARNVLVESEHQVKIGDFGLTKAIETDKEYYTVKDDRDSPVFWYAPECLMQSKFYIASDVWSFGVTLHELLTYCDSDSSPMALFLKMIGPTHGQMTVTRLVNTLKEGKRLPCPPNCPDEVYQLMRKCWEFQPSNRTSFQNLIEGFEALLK
Sequence of TYK2 (P29597 whole entry): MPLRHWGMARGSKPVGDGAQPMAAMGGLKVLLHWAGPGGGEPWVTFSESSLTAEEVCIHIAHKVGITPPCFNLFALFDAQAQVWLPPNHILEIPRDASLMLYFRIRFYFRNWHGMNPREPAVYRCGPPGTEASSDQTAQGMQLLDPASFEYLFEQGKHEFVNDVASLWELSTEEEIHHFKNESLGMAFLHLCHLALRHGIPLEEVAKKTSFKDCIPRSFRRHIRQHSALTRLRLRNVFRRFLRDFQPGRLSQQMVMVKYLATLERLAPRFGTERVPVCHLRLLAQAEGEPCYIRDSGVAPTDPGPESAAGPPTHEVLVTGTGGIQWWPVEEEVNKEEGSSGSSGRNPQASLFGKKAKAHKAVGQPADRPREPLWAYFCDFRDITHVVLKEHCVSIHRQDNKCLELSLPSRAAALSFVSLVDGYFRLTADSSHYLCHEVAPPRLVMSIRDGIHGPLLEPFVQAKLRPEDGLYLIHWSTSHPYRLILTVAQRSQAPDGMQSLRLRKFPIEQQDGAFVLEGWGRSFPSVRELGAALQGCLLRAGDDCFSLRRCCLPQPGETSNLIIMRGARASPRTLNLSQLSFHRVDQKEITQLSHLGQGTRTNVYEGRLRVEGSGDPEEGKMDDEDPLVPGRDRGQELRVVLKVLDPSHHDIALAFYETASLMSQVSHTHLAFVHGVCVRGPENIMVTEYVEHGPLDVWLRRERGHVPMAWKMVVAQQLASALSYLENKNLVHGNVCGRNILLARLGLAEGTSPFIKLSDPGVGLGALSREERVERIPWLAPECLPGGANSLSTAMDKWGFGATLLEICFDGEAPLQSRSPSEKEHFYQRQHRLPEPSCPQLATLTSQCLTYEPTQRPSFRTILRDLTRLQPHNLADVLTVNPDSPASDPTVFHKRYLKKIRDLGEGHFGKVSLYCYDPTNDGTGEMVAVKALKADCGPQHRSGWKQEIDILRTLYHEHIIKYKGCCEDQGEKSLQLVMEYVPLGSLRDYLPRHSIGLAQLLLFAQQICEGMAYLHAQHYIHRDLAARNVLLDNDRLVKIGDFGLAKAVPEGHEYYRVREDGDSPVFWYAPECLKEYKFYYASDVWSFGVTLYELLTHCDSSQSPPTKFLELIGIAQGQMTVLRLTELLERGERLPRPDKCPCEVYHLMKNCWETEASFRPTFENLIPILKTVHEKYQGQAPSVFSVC

Take `Nc1cc2ccc1-c1ccnc(n1)Nc1ccc(OCC3Cc4ccccc4O3)c(c1)COCCCCNC2=O` (stereo not shown) [Example 155, 1^2-amino-4^4-((2,3-dihydroxybenzo-furan-2-yl)methoxy)-6-oxa-3,11-di-aza-2(4,2)-pyrimidina-1(1,4),4(1,3)-dibenzenacyclododecaphan-12-one]: the IC50 at JAK3 lay within 11 to 100 nM; on TYK2 it was 1000 to 10000 nM; on JAK1 it was 1000 to 10000 nM; at JAK2 it was 101 to 1000 nM.

Regarding `COc1ccccc1COc1ccc2cc1COCCCCNC(=O)c1ccc(c(N)c1)-c1ccnc(n1)N2` [Example 156, 1^2-amino-4^4-((2-methoxybenzyl)oxy)-6-oxa-3,11-diaza-2(4,2)-pyri-midina-1(1,4),4(1,3)-dibenzena-cyclododecaphan-12-one], the IC50 at JAK3 was 11 to 100 nM; at TYK2, above 10000 nM; at JAK1, 1000 to 10000 nM; on JAK2, 101 to 1000 nM.

In the case of `CC1CCOCc2cc(ccc2OC2CC2)Nc2nccc(n2)-c2ccc(cc2N)C(=O)NC1` (stereo not shown) [Example 157, 1^2-amino-4^4-cyclopropoxy-9-meth-yl-6-oxa-3,11-diaza-2(4,2)-pyrimi-dina-1(1,4),4(1,3)-dibenzenacyclo-dodecaphan-12-one], the IC50 is below 10 nM on JAK3, 101 to 1000 nM at TYK2, 101 to 1000 nM on JAK1 and 11 to 100 nM against JAK2.

`CC1CCOCc2cc(ccc2OC2CC2)Nc2nccc(n2)-c2ccc(cc2[N+](=O)[O-])C(=O)NC1` (stereo not shown) [Example 158, 4^4-cyclopropoxy-9-methyl-1^2-nitro-6-oxa-3,11-diaza-2(4,2)-pyrimi-dina-1(1,4),4(1,3)-dibenzenacyclo-dodecaphan-12-one]: the IC50 at JAK3 was 101 to 1000 nM; at TYK2 it was above 10000 nM; on JAK1, 1000 to 10000 nM; against JAK2, above 10000 nM.

Take `Nc1cc2ccc1-c1ccnc(n1)Nc1ccc(OCc3cccc4c3COC4)c(c1)COCCCCNC2=O` [Example 160, 1^2-amino-4^4-((1,3-dihydroisobenzo-furan-4-yl)methoxy)-6-oxa-3,11-diaza-2(4,2)-pyrimidina-1(1,4),4(1,3)-dibenzenacyclododecaphan-12-one]: the IC50 is 11 to 100 nM at JAK3, 1000 to 10000 nM on TYK2, 1000 to 10000 nM at JAK1 and 101 to 1000 nM against JAK2.

In the case of `Nc1cc2ccc1-c1ccnc(n1)Nc1ccc(Oc3cnc4[nH]ccc4c3)c(c1)COCCCCNC2=O` [Example 161, 4^4-((1H-pyrrolo[2,3-b]pyridin-5-yl)oxy)-1^2-amino-6-oxa-3,11-diaza-2(4,2)-pyrimidina-1(1,4),4(1,3)-di-benzenacyclododecaphan-12-one], the IC50 on JAK3 is 1000 to 10000 nM; on TYK2, above 10000 nM; on JAK1, 1000 to 10000 nM; on JAK2, 1000 to 10000 nM.

As to `CC1CCOCc2cc(ccc2OC2CCCOC2)Nc2nccc(n2)-c2ccc(cc2[N+](=O)[O-])C(=O)NC1` (stereo not shown) [Example 162, 9-methyl-1^2-nitro-4^4-((tetrahydro-2H-pyran-3-yl)oxy)-6-oxa-3,11-di-aza-2(4,2)-pyrimidina-1(1,4),4(1,3)-dibenzenacyclododecaphan-12-one], the IC50 was in the range of 101 to 1000 nM at JAK3, 1000 to 10000 nM on TYK2, 1000 to 10000 nM on JAK1 and 101 to 1000 nM on JAK2.

As to `O=C1NCCCCOCc2cc(ccc2OCC2COC2)Nc2nccc(n2)-c2ccc1cc2[N+](=O)[O-]` [Example 163, 1^2-nitro-4^4-(oxetan-3-ylmethoxy)-6-oxa-3,11-diaza-2(4,2)-pyrimidina-1(1,4),4(1,3)-dibenzenacyclo-dodecaphan-12-one], the IC50 at JAK3 is 1000 to 10000 nM; at TYK2 it was above 10000 nM; on JAK1, 1000 to 10000 nM; on JAK2, 1000 to 10000 nM.

Turning to `Nc1cc2ccc1-c1ccnc(n1)Nc1ccc(OCC3COC3)c(c1)COCCCCNC2=O` [Example 164, 1^2-amino-4^4-(oxetan-3-ylmethoxy)-6-oxa-3-diaza-2(4,2)-pyrimidina-1(1,4),4(1,3)-dibenzenacyclo-dodecaphan-12-one], the IC50 at JAK3 lay in the range of 11 to 100 nM; on TYK2, 1000 to 10000 nM; on JAK1, 1000 to 10000 nM; at JAK2, 101 to 1000 nM.

For the molecule `CC1CCOCc2cc(ccc2OC2CCCOC2)Nc2nccc(n2)-c2ccc(cc2N)C(=O)NC1` (stereo not shown) [Example 165, 1^2-amino-9-methyl-4^4-((tetrahydro-2H-pyran-3-yl)oxy)-6-oxa-3,11-di-aza-2(4,2)-pyrimidina-1(1,4),4(1,3)-dibenzenacyclododecaphan-12-one], the IC50 on JAK3 was below 10 nM; at TYK2 it was 101 to 1000 nM; on JAK1 it was 101 to 1000 nM; against JAK2 it was 11 to 100 nM.

For `CC1CCOCc2cc(ccc2OCC2CCOC2)Nc2nccc(n2)-c2ccc(cc2[N+](=O)[O-])C(=O)NC1` (stereo not shown) [Example 166, 9-methyl-1^2-nitro-4^4-((tetrahydro-furan-3-yl)methoxy)-6-oxa-3,11-di-aza-2(4,2)-pyrimidina-1(1,4),4(1,3)-dibenzenacyclododecaphan-12-one], the IC50 at JAK3 is 101 to 1000 nM; on TYK2, above 10000 nM; on JAK1, 1000 to 10000 nM; against JAK2, 1000 to 10000 nM.

In the case of `CC1CCOCc2cc(ccc2OCC2CCOC2)Nc2nccc(n2)-c2ccc(cc2N)C(=O)NC1` (stereo not shown) [Example 167, 1-amino-9-methyl-4^4-((tetahydro-furan-3-yl)methoxy)-6-oxa-3,11-diaza-2(4,2)-pyrimidina-1(1,4),4(1,3)-dibenzenacyclododecaphan-12-one], the IC50 at JAK3 was below 10 nM; on TYK2, 101 to 1000 nM; at JAK1, 101 to 1000 nM; on JAK2, 101 to 1000 nM.

Turning to `CC1(C)CCNC(=O)c2ccc(c(N)c2)-c2ccnc(n2)Nc2ccc(OC3CCCOC3)c(c2)COC1` (stereo not shown) [Example 168, 1^2-amino-8,8-dimethyl-4^4-((tetra-hydro-2H-pyran-3-yl)oxy)-6-oxa-3,11-diaza-2(4,2)-pyrimidina-1(1,4),4(1,3)-dibenzenacyclododecaphan-12-one], the IC50 on JAK3 is 1000 to 10000 nM; on TYK2, above 10000 nM; at JAK1, above 10000 nM; at JAK2, 1000 to 10000 nM.

Turning to `CC1CCOCc2cc(ccc2OCC2CCCC2)Nc2nccc(n2)-c2ccc(cc2N)C(=O)NC1` (stereo not shown) [Example 169, 1^2-amino-4^4-(cyclopentylmethoxy)-9-methyl-6-oxa-3,11-diaza-2(4,2)-pyrimidina-1(1,4),4(1,3)-dibenzena-cyclododecaphan-12-one], the IC50 on JAK3 is 11 to 100 nM; on TYK2, 1000 to 10000 nM; on JAK1, 1000 to 10000 nM; against JAK2, 101 to 1000 nM.

With `CC1(C)CCOCc2cc(ccc2OC2CCCOC2)Nc2nccc(n2)-c2ccc(cc2N)C(=O)NC1` (stereo not shown) [Example 170, 1^2-amino-9,9-dimethyl-4^4-((tetra-hydroxy-2H-pyran-3-yl)oxy)-6-oxa-3,11-diaza-2(4,2)-pyrimidina-1(1,4),4(1,3)-dibenzenacyclododecaphan-12-one], the IC50 was in the range of 101 to 1000 nM at JAK3, 1000 to 10000 nM on TYK2, 1000 to 10000 nM at JAK1 and 1000 to 10000 nM at JAK2.

`COc1cccc(F)c1COc1ccc2cc1COCCCCNC(=O)c1ccc(c([N+](=O)[O-])c1)-c1ccnc(n1)N2` [Example 171, 4^4-((2-fluoro-6-methoxybenzyl)oxy)-1^2-nitro-6-oxa-3,11-diaza-2(4,2)-pyrimidina-1(1,4),4(1,3)-di-benzenacyclododecaphan-12-one]: the IC50 at JAK3 is 1000 to 10000 nM; on TYK2 it was above 10000 nM; on JAK1 it was 1000 to 10000 nM; against JAK2 it was 1000 to 10000 nM.
